Patent US7625948B2, “Ester compound and medicinal use thereof” (Japan Tobacco Inc., priority 2002, dated 2009)
Where two headings read alike, the source gives them in different places.

How the values were obtained:
[1] = target: T1, Microsomal triglyceride transfer protein (MTP) from bovine liver (Bos taurus, UniProt P55156); experiment: Test Example 1: inhibition of interliposomal triglyceride (TG) transfer activity by MTP (also used for metabolites in Test Example 8); format: biochemical
T1 construct: from tissue; host or cells: bovine liver
T1 sequence (P55156 12-887): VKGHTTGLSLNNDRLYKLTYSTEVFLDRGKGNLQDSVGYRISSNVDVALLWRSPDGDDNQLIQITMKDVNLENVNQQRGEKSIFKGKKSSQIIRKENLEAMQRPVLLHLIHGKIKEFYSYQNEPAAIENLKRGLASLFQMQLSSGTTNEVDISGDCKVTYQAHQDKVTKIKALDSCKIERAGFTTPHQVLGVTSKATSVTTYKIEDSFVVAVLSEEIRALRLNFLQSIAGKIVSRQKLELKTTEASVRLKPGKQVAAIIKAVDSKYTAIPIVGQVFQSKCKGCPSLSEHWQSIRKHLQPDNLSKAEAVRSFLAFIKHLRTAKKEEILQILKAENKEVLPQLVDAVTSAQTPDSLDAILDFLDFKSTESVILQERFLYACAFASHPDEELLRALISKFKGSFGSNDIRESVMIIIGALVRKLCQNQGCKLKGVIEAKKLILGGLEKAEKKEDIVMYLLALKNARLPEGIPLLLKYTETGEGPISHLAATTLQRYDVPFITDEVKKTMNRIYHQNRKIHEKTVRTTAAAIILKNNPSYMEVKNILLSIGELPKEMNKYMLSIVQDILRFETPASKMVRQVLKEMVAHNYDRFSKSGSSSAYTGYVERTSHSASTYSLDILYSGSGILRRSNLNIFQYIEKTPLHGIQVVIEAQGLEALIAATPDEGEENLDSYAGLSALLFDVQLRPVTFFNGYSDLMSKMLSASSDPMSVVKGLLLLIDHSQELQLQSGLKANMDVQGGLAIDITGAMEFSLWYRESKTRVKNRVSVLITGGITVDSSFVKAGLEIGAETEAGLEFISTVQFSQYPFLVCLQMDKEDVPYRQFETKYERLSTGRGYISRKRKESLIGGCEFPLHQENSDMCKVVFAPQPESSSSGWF
T1 sequence (P05307 21-510 partner): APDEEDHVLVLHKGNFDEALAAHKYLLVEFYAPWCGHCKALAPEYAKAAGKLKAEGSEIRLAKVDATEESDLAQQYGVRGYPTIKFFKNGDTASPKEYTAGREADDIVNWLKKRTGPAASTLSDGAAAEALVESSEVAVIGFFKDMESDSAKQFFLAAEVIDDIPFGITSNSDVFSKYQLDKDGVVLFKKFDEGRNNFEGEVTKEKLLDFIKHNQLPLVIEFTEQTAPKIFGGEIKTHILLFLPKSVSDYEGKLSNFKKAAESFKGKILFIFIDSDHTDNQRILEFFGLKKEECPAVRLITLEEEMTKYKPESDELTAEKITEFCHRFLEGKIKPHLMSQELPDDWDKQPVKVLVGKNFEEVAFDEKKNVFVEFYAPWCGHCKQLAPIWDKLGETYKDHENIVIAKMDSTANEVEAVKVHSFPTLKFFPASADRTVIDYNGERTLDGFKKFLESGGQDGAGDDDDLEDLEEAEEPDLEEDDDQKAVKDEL
Protocol: Inhibition of Interliposomal Triglyceride (TG) Transfer Activity by MTP
Microsomal triglyceride transfer protein (MTP) from bovine liver was partially purified in such a way described below. A buffer (50 mM Tris, 250 mM sucrose, 1 mM EDTA, 0.02% NaN3 (pH 7.4)) for making a homogenate preparation was added to bovine liver, and the mixture was homogenated under ice-cooling, then centrifuged at 10,000×g (4° C., 30 minutes). The supernatant was adjusted to pH 5.1 with hydrochloric acid, and stirred for 30 minutes. The solution was further centrifuged at 10,000×g (4° C., 30 minutes), and 1 mM Tris buffer was added to the precipitated residue, and the mixture was adjusted to pH 8.6 with sodium hydroxide. After addition of 2.7M ammonium sulfate solution, the mixture was stirred for 30 minutes, then centrifuged at 10,000×g (4° C., 40 minutes). The resulting supernatant was served as a crude extraction fraction of MTP and stored at −80° C. under freezing. In its practical use, the crude extraction fraction of MTP was purified by column chromatography on diethylaminoethyl (DEAE) Sepharose using FPLC (Fast Performance Liquid Chromatography) system, and the purified MTP was used for the test.
Small unilamellar-vesicle (SUV) liposome (donor, 0.25 mol % triolein, 5 mol % cardiolipin) labeled with ^14C-triolein and non-labeled SUV liposome (acceptor, 0.25 mol % triolein) were prepared. A fixed amount of donor and acceptor, and MTP were mixed with a sample dissolved in DMSO or with DMSO. The mixture was incubated in a 15 mM Tris hydrochloride buffer (pH 7.4) containing 40 mM sodium chloride, 1 mM EDTA (ethylenediaminetetraacetic acid), 0.02% NaN3 and 0.5% bovine serum albumin at 37° C. for one hour. After completion of the incubation, a suspension of DEAE cellulose (50% v/v) in 15 mM Tris hydrochloride buffer (pH 7.4) was added to the above solution, and the mixture was centrifuged to separate the donor and the acceptor. The radioactivity in the acceptor was measured by liquid scintillation counter. The value obtained by subtracting the radioactivity in the blank from the amount of radioactivity in the acceptor of a DMSO group was determined as MTP-mediated TG transfer activity, and it was compared with the value obtained by subtracting the radioactivity in the blank from the radioactivity in a sample group. The blank was prepared by adding 15 mM Tris-HCl buffer (pH 7.4) in place of MTP. Inhibition rate (%) was calculated from the values obtained according to the following equation.
Inhibition rate (%)=100×(1 minus ((radioactivity of sample group minus radioactivity of blank group)/(radioactivity of DMSO group minus radioactivity of blank group))).
50% Inhibition rate (IC50) was determined on the basis of the above equation.
Inhibitory Activity on MTP and apo B Secretion Inhibition by Metabolites
In a similar manner to Test Examples 1 and 2, the activity of metabolites was assayed.

[2] = system: HepG2 cells; experiment: Test Example 2: inhibition of apolipoprotein B secretion from HepG2 cells, ELISA (also used for metabolites in Test Example 8); format: cell-based; conditions: Homo sapiens
Outline: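 HepG2 cells cultured 24 h, then exposed 24 h to compounds or metabolites in medium with 0.5% DMSO. Secreted apo B in supernatant quantified by sandwich ELISA (HRP, ABTS, 405 nm) against purified human apo B standard; % inhibition vs DMSO group, IC50 derived.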

[3] = MTP-mediated 14C-triolein transfer between liposomes, 37° C., one hour, read-out: Test Example 1 MTP inhibition IC50
[4] = 24 hours, apo B in supernatant by ELISA, read-out: Test Example 2 Inhibition of apo B secretion IC50
[5] = main metabolites of the compounds (Test Example 8), read-out: MTP inhibition IC50
[6] = main metabolites of the compounds (Test Example 8), read-out: Inhibition of apo B secretion IC50

Compound | IC50 [1, 3] [nM] | IC50 [2, 4] [nM] | IC50 [1, 5] [nM] | IC50 [2, 6] [nM]
CNC(=O)C(COC(=O)Cc1ccc(NC(=O)c2ccccc2-c2ccc(C(F)(F)F)cc2)cc1)(C(=O)NC)c1ccccc1 [Example 1-36] | 2 | 150 | – | –
O=C(OCCC(C(=O)NCC(F)(F)F)(c1ccccc1)c1ccccc1)c1ccc(NC(=O)c2ccccc2-c2ccc(C(F)(F)F)cc2)cc1 [Example 6-8] | 50 | 630 | – | –
CCCCNC(=O)C(COC(=O)Cc1ccc(NC(=O)c2ccccc2-c2ccc(C(F)(F)F)cc2)cc1)(C(=O)NCCCC)c1ccccc1 [Example 1-42] | 4.4 | 35 | – | –
CCOC(=O)C(CCOC(=O)Cc1ccc(C)c(NC(=O)c2ccccc2-c2ccc(C(F)(F)F)cc2)c1)(C(=O)OCC)c1ccccc1 [Example 5-6] | 3.9 | 260 | – | –
CC(C)NC(=O)C(CCOC(=O)Cc1cccc(NC(=O)c2ccccc2-c2ccc(C(F)(F)F)cc2)c1)(C(=O)NC(C)C)c1ccccc1 [Example 5-8] | 14 | 340 | – | –
CCNC(=O)C(CCOC(=O)Cc1ccc(NC(=O)c2ccccc2-c2ccc(C(F)(F)F)cc2)cc1)(C(=O)NCC)c1ccccc1 [Example 1-48] | 3.2 | 9.7 | – | –
O=C(O)Cc1ccc(NC(=O)c2ccccc2-c2ccc(C(F)(F)F)cc2)cc1 | – | – | > 1000 | > 10000
CCOC(=O)C(COC(=O)Cc1ccc(NC(=O)c2ccccc2-c2ccc(C(F)(F)F)cc2)c(C(=O)N2CCCCC2)c1)(C(=O)OCC)c1ccccc1 [Example 2-23] | 2.7 | 0.61 | – | –
CCOC(=O)C(CCOC(=O)c1ccc(NC(=O)c2ccccc2-c2ccc(C(F)(F)F)cc2)cc1Cl)(C(=O)OCC)c1ccccc1 [Example 6-16] | 2.9 | 170 | – | –
CCOC(=O)C(COC(=O)Cc1cccc(NC(=O)c2ccccc2-c2ccc(C(F)(F)F)cc2)c1)(C(=O)OCC)c1ccccc1 [Example 5-2] | 66.5 | 875 | – | –
CCNC(=O)C(COC(=O)Cc1ccc(OC(=O)c2ccccc2-c2ccc(C(F)(F)F)cc2)cc1)(C(=O)NCC)c1ccccc1 [Example 1-39] | 0.66 | 160 | – | –
CCOC(=O)C(CCOC(=O)c1ccc(OC(=O)c2ccccc2-c2ccc(C(F)(F)F)cc2)cc1)(C(=O)OCC)c1ccccc1 [Example 6-17] | 2.3 | 420 | – | –
CCOC(=O)C(COC(=O)Cc1ccc(NC(=O)c2ccccc2-c2ccc(C(F)(F)F)cc2)cc1)(C(=O)OCC)c1ccccc1 [Example 1-9] | 5.95 | 3.2 | – | –
O=C(Nc1ccccc1-c1ccccc1)c1ccc(C(=O)OCCC2(C(=O)NCC(F)(F)F)c3ccccc3-c3ccccc32)cc1 [Example 6-3] | 5.2 | 510 | – | –
O=C(OCCC(C(=O)NCC(F)(F)F)c1ccccc1)c1ccc(NC(=O)c2ccccc2-c2ccc(C(F)(F)F)cc2)cc1 (stereo not shown) [Example 6-10] | 22 | 870 | – | –
CCOC(=O)C(CO)(C(=O)OCC)c1ccccc1 | – | – | > 1000 | > 10000
CCOC(=O)C(COC(=O)Cc1ccc(NC(=O)c2ccccc2-c2ccc(C(F)(F)F)cc2)c(C(=O)N(C)C)c1)(C(=O)OCC)c1ccc(Cl)cc1 [Example 2-73] | – | 2.93 | – | –
CCOC(=O)C(CCOC(=O)Cc1cccc(NC(=O)c2ccccc2-c2ccc(C(F)(F)F)cc2)c1C(=O)OC)(C(=O)OCC)c1ccccc1 [Example 5-17] | – | 5.2 | – | –
CCOC(=O)C(COC(=O)Cc1ccc(NC(=O)c2ccccc2-c2ccc(Cl)cc2)c(C(=O)N(C)C)c1)(C(=O)OCC)c1ccccc1 [Example 2-42] | – | 1.8 | – | –
CCOC(=O)C(COC(=O)Cc1ccc(NC(=O)c2ccc(C(F)(F)F)cc2-c2ccc(C(F)(F)F)cc2)c(C(=O)N(C)C)c1)(C(=O)OCC)c1ccccc1 [Example 2-78] | – | 0.14 | – | –
CCOC(=O)C(COC(=O)Cc1ccc(NC(=O)c2ccc(OC)cc2-c2ccc(C(F)(F)F)cc2)c(C(=O)N(C)C)c1)(C(=O)OCC)c1ccccc1 [Example 2-53] | – | 4.6 | – | –
CCOC(=O)C(COC(=O)Cc1ccc(NC(=O)c2ccccc2-c2ccc(C(F)(F)F)cc2)c(C(=O)N(C)C)c1)(C(=O)OCC)c1ccccc1C [Example 2-68] | – | 2.25 | – | –
CCOC(=O)C(COC(=O)Cc1ccc(NC(=O)c2ccccc2-c2ccc(C(F)(F)F)cc2)c(C(=O)N(C)OC)c1)(C(=O)OCC)c1ccccc1 [Example 9-27] | – | 0.82 | – | –
CCOC(=O)c1cc(CC(=O)OCC(C(=O)OCC)(C(=O)OCC)c2ccccc2)ccc1NC(=O)c1ccccc1-c1ccc(C(F)(F)F)cc1 [Example 9-4, 2-(2-{3-Ethoxycarbonyl-4-[(4′-trifluoromethylbiphenyl-2-carbonyl)amino]phenyl}acetoxymethyl)-2-phenylmalonic acid diethyl ester] | – | 9.9 | – | –
CCOC(=O)C(COC(=O)Cc1cc(C(=O)N(C)C)c(NC(=O)c2ccccc2-c2ccc(C(F)(F)F)cc2)cn1)(C(=O)OCC)c1ccccc1 [Example 2-107] | – | 50 | – | –
CCOC(=O)C(COC(=O)Cc1ccc(NC(=O)c2ccccc2-c2ccc(CC)cc2)c(C(=O)N(C)C)c1)(C(=O)OCC)c1ccccc1 [Example 2-90] | – | 1.74 | – | –
CCOC(=O)C(COC(=O)Cc1ccc(NC(=O)c2ccccc2Oc2ccc(C(F)(F)F)cc2)c(C(=O)N(C)C)c1)(C(=O)OCC)c1ccccc1 [Example 2-99] | – | 19 | – | –
CCNC(=O)C(COC(=O)Cc1ccc(NC(=O)c2ccccc2-c2ccc(C(F)(F)F)cc2)c(C(=O)N(C)C(C)C)c1)(C(=O)NCC)c1ccccc1 [Example 2-12] | – | 7 | – | –
CCOC(=O)C(COC(=O)Cc1ccc(NC(=O)c2ccccc2-c2ccc(C(F)(F)F)cc2)c(C(=O)N(C)C)c1)(C(=O)OCC)C(=O)OCC [Example 2-118] | – | 49 | – | –
CCNC(=O)C(CCOC(=O)Cc1cccc(NC(=O)c2ccccc2-c2ccc(C(F)(F)F)cc2)c1OC)(C(=O)NCC)c1ccccc1 [Example 5-12] | – | 1.3 | – | –
